Drawing on patent publication US20230124087A1, “KV3 ENHANCERS FOR THE TREATMENT OF COGNITIVE DISORDERS” (Hoffmann-La Roche Inc., priority 2020, published 2023), this text covers EC50 for 32 molecules.

One assay addresses T1, Kv3.1 (Homo sapiens, UniProt P48547).
T1 construct: expressed in transfected cells
T1 sequence (P48547 1-511): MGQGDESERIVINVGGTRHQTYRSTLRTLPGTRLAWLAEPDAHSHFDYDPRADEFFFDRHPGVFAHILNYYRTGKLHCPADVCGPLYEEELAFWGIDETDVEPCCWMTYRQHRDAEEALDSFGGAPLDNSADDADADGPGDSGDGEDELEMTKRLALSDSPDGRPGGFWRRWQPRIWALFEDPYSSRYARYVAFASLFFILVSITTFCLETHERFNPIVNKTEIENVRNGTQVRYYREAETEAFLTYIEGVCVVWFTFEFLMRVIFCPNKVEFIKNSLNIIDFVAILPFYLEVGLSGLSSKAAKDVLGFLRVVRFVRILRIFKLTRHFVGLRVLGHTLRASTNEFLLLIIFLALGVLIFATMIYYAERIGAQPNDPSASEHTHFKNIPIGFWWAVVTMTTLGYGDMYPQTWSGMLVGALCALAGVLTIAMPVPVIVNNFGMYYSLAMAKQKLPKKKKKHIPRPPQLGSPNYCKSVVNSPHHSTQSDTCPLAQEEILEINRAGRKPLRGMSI
In words: Kv3.1 automated patch clamp (Qube) cellular electrophysiology assay. In kind it is cell-based.
Conditions: not given
The text has this: In vitro, high-throughput cellular electrophysiology was employed to detect voltage-dependence of compounds in single concentration screening and IC50 determination for library and medicinal chemistry profiling compounds in 384 well plates.
HEK-293 cell lines stably expressing coding DNA for Kv3.1, 3.2, 3.3, and 3.4 were validated on an automated patch clamp (APC) platform, Qube from Sophion/Denmark. Cell cultures were maintained in DMEM cell growth media containing FBS and appropriate antibiotics at 37° C., 5% CO2 for a maximum of 20 passages. Intra- and extracellular (w. glucose) HEPES buffers containing various monovalent and divalent cations were adjusted to pH 7.2 and 7.4 respectively. Cells were harvested at 75% confluency and resuspended in extracellular buffer and added to wells. Negative pressure was applied to establish whole cell recording by APC.
Currents through activated channels were measured directly by APC by employing depolarization voltage steps. Baseline currents were established for the voltage-dependence protocols using a −80 mV holding potential and multiple test pulses at +10 mV or by 10 mV steps from −80 mV to +40 mV, respectively. Test compounds were added after baseline recordings followed by a 10 min incubation, and voltage-dependency protocol recordings. Data was corrected for baseline and leak currents (well based) and normalized for % potentiation (plate based). Two previously reported Kv3 positive modulators of varying potencies were used for run to run and plate to plate quality controls. A non-selective and potent positive modulator was used as a positive control. Percent potentiation was analyzed at −20 mV of the voltage-dependency protocol and voltage shift in channel activation was analyzed using the voltage step protocol from −80 mV to +40 mV. Selectivity was assessed against Kv3.2, Kv3.3, and Kv3.4 overexpressing cell lines using similar methods.
Background: Patch clamp records ionic current or voltage across a cell membrane.
In general, EC50 refers to the concentration needed to bring the measured effect to its halfway point. On to `O=c1[nH]c2cccnc2n1-c1ccc(Oc2cccc3c2C2(CC2)CO3)nc1` [Example 1, 3-(6-spiro[2H-benzofuran-3,1′-cyclopropane]-4-yloxy-3-pyridyl)-1H-imidazo[4,5-b]pyridin-2-one], for which the EC50 was found to be 0.3 µM.
As to `O=c1[nH]c2cncnc2n1-c1ccc(Oc2cccc3c2C2(CC2)CO3)nc1` [Example 2, 9-(6-spiro[2H-benzofuran-3,1′-cyclopropane]-4-yloxy-3-pyridyl)-7H-purin-8-one], the concentration giving a half-maximal response (EC50) was 0.8 µM.
As for `Cc1ccc(Oc2ccc(-n3c(=O)[nH]c4cccnc43)cn2)cc1Cl` [Example 3, 3-[6-(3-chloro-4-methyl-phenoxy)-3-pyridyl]-1H-imidazo[4,5-b]pyridin-2-one], the EC50 amounted to 1.6 µM.
On the same count and under the same terms, then `CC(C)(C)c1cc(C#N)ccc1Oc1ccc(-n2c(=O)[nH]c3cccnc32)cn1` [Example 4, 3-tert-butyl-4-[[5-(2-oxo-1H-imidazo[4,5-b]pyridin-3-yl)-2-pyridyl]oxy]benzonitrile], with 2 µM; and `CC(C)c1cc(Oc2ccc(-n3c(=O)[nH]c4cccnc43)cn2)ccc1C#N` [Example 5, 2-isopropyl-4-[[5-(2-oxo-1H-imidazo[4,5-b]pyridin-3-yl)-2-pyridyl]oxy]benzonitrile], with 2.7 µM.
In the case of `O=c1[nH]c2cnccc2n1-c1ccc(Oc2cccc3c2C2(CC2)CO3)nc1` [Example 6, 1-(6-spiro[2H-benzofuran-3,1′-cyclopropane]-4-yloxy-3-pyridyl)-3H-imidazo[4,5-c]pyridin-2-one], the EC50 was 2 µM.
With `COc1cc(Oc2ccc(-n3c(=O)[nH]c4cc(F)cnc43)cn2)ccc1C` [Example 7, 6-fluoro-3-[6-(3-methoxy-4-methyl-phenoxy)-3-pyridyl]-1H-imidazo[4,5-b]pyridin-2-one], the EC50 worked out at 2.2 µM.
With `O=c1[nH]c2cccnc2n1-c1ccc(Oc2cccc3c2C2(CC2)CO3)c(F)c1` [Example 8, 3-(3-fluoro-4-spiro[2H-benzofuran-3,1′-cyclopropane]-4-yloxy-phenyl)-1H-imidazo[4,5-b]pyridin-2-one], the EC50 is 2.3 µM.
Same read-out and setting: then `COc1cc(Oc2ccc(-n3c(=O)[nH]c4cc(C)cnc43)cn2)ccc1C` [Example 9, 3-[6-(3-methoxy-4-methyl-phenoxy)-3-pyridyl]-6-methyl-1H-imidazo[4,5-b]pyridin-2-one], with 2.5 µM.
Turning to `O=c1[nH]c2ccccc2n1-c1ccc(Oc2cccc3c2C2(CC2)CO3)nc1` [Example 10, 3-(6-spiro[2H-benzofuran-3,1′-cyclopropane]-4-yloxy-3-pyridyl)-1H-benzimidazol-2-one], the half-maximal effective concentration (EC50) was 2.5 µM.
Regarding `Cc1cc(-n2c(=O)[nH]c3ccccc32)cnc1Oc1cccc2c1C1(CC1)CO2` [Example 11, 3-(5-methyl-6-spiro[2H-benzofuran-3,1′-cyclopropane]-4-yloxy-3-pyridyl)-1H-benzimidazol-2-one], the EC50 was 2.8 µM.
On the same count and under the same terms, the figure for `O=c1[nH]c2ccncc2n1-c1ccc(Oc2cccc3c2C2(CC2)CO3)nc1` [Example 12, 3-(6-spiro[2H-benzofuran-3,1′-cyclopropane]-4-yloxy-3-pyridyl)-1H-imidazo[4,5-c]pyridin-2-one] is 3.9 µM.
As to `O=c1[nH]c2ncccc2n1-c1ccc(Oc2cccc3c2C2(CC2)CO3)nc1` [Example 13, 1-(6-spiro[2H-benzofuran-3,1′-cyclopropane]-4-yloxy-3-pyridyl)-3H-imidazo[4,5-b]pyridin-2-one], the EC50 came to 3.4 µM.
For the molecule `CC(C)c1cc(Oc2ccc(-n3c(=O)[nH]c4cc(F)cnc43)cn2)ccc1C#N` [Example 14, 4-[[5-(6-fluoro-2-oxo-1H-imidazo[4,5-b]pyridin-3-yl)-2-pyridyl]oxy]-2-isopropyl-benzonitrile], the concentration giving a half-maximal response (EC50) worked out at 2.7 µM.
For the molecule `CC(C)c1cc(Oc2ccc(-n3c(=O)[nH]c4cncnc43)cn2)ccc1C#N` [Example 15, 2-isopropyl-4-[[5-(8-oxo-7H-purin-9-yl)-2-pyridyl]oxy]benzonitrile], the EC50 came to 3.5 µM.
Consider `CC(C)c1cc(Oc2ccc(-n3c(=O)[nH]c4cnccc43)cn2)ccc1C#N` [Example 16, 2-isopropyl-4-[[5-(2-oxo-3H-imidazo[4,5-c]pyridin-1-yl)-2-pyridyl]oxy]benzonitrile], for which the 50% effective concentration (EC50) is 5.9 µM.
With `CC(C)c1cc(Oc2ccc(-n3c(=O)[nH]c4cccnc43)cc2F)ccc1C#N` [Example 17, 4-[2-fluoro-4-(2-oxo-1H-imidazo[4,5-b]pyridin-3-yl)phenoxy]-2-isopropyl-benzonitrile], the EC50 worked out at 4.7 µM.
In the case of `CC(C)c1cc(Oc2ccc(-n3c(=O)[nH]c4cncnc43)cc2F)ccc1C#N` [Example 18, 4-[2-fluoro-4-(8-oxo-7H-purin-9-yl)phenoxy]-2-isopropyl-benzonitrile], the EC50 came to 18.8 µM.
In the case of `CC(C)c1cc(Oc2ccc(-n3c(=O)[nH]c4ccccc43)cn2)ccc1C#N` [Example 19, 2-isopropyl-4-[[5-(2-oxo-3H-benzimidazol-1-yl)-2-pyridyl]oxy]benzonitrile], the EC50 was found to be 15.6 µM.
Regarding `CC(C)(C)c1cc(C#N)ccc1Oc1ccc(-n2c(=O)[nH]c3ccccc32)cn1` [Example 20, 3-tert-butyl-4-[[5-(2-oxo-3H-benzimidazol-1-yl)-2-pyridyl]oxy]benzonitrile], the EC50 is 12.2 µM.
With `CCc1cc(Oc2ccc(-n3c(=O)[nH]c4ccccc43)cn2)ccc1C#N` [Example 21, 2-ethyl-4-[[5-(2-oxo-3H-benzimidazol-1-yl)-2-pyridyl]oxy]benzonitrile], the EC50 was 18.5 µM.
Consider `CC(C)Oc1cc(Oc2ccc(-n3c(=O)[nH]c4ccccc43)cn2)ccc1C#N` [Example 22, 2-isopropoxy-4-[[5-(2-oxo-3H-benzimidazol-1-yl)-2-pyridyl]oxy]benzonitrile], for which the 50% effective concentration (EC50) came to 20.7 µM.
As for `O=c1[nH]c2ccccc2n1-c1ccc(Oc2cccc3c2C2(CC2)CO3)c(F)c1` [Example 23, 3-(3-fluoro-4-spiro[2H-benzofuran-3,1′-cyclopropane]-4-yloxy-phenyl)-1H-benzimidazol-2-one], the concentration for a half-maximal effect (EC50) is 3.5 µM.
Regarding `CC(C)(C)c1cc(C#N)ccc1Oc1ccc(-n2c(=O)[nH]c3cncnc32)cn1` [Example 24, 3-tert-butyl-4-[[5-(8-oxo-7H-purin-9-yl)-2-pyridyl]oxy]benzonitrile], the EC50 was found to be 4 µM.
For `CC(C)(C)c1cc(C#N)ccc1Oc1ccc(-n2c(=O)[nH]c3cnccc32)cn1` [Example 26, 3-tert-butyl-4-[[5-(2-oxo-3H-imidazo[4,5-c]pyridin-1-yl)-2-pyridyl]oxy]benzonitrile], the EC50 is 4.7 µM.
Regarding `CC(C)(C)c1cc(C#N)ccc1Oc1ccc(-n2c(=O)[nH]c3cc(F)cnc32)cn1` [Example 27, 3-tert-butyl-4-[[5-(6-fluoro-2-oxo-1H-imidazo[4,5-b]pyridin-3-yl)-2-pyridyl]oxy]benzonitrile], the EC50 worked out at 5.5 µM.
Consider `COc1cc(Oc2ccc(-n3c(=O)[nH]c4cc(Cl)cnc43)cn2)ccc1C` [Example 28, 6-chloro-3-[6-(3-methoxy-4-methyl-phenoxy)-3-pyridyl]-1H-imidazo[4,5-b]pyridin-2-one], for which the EC50 came to 10 µM.
In the case of `COc1cc(Oc2ccc(-n3c(=O)[nH]c4cc(C(F)(F)F)cnc43)cn2)ccc1C` [Example 29, 3-[6-(3-methoxy-4-methyl-phenoxy)-3-pyridyl]-6-(trifluoromethyl)-1H-imidazo[4,5-b]pyridin-2-one], the concentration for a half-maximal effect (EC50) came out at 5.7 µM.
As for `COc1cc(Oc2ccc(-n3c(=O)[nH]c4ncccc43)cn2)ccc1C` [Example 30, 1-[6-(3-methoxy-4-methyl-phenoxy)-3-pyridyl]-3H-imidazo[4,5-b]pyridin-2-one], the EC50 is 19.2 µM.
On the same count and under the same terms, the figure for `COc1cc(Oc2ccc(-n3c(=O)[nH]c4ccncc43)cn2)ccc1C` [Example 31, 3-[6-(3-methoxy-4-methyl-phenoxy)-3-pyridyl]-1H-imidazo[4,5-c]pyridin-2-one] is 21 µM; for `COc1cc(Oc2ccc(-n3c(=O)[nH]c4cnccc43)cn2)ccc1C` [Example 32, 1-[6-(3-methoxy-4-methyl-phenoxy)-3-pyridyl]-3H-imidazo[4,5-c]pyridin-2-one] it is 4.4 µM.

The assay is the same for the next values; noted with them: HEK-293 cell line stably expressing Kv3.1; automated patch clamp; 10 min incubation; read-out: EC50 Kv3.1.
Turning to `Cc1ccc(Oc2ccc(-n3c(=O)[nH]c4cncnc43)cn2)cc1OC(F)(F)F` [Example 25, 9-[6-[4-methyl-3-(trifluoromethoxy)phenoxy]-3-pyridyl]-7H-purin-8-one], the half-maximal effective concentration (EC50) came to 5.9 µM.
